Data taken from the supplement of paper PMC3842684.

Columns and labels:
[1] = system: P. falciparum NF54-pfs16-GFP late (IV-V) stage gametocytes; conditions: stage: late (IV-V) gametocyte; incubation 72 h
Method: (§1)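 MMV Malaria Box compounds active in the primary screen were retested in dose-response against P. falciparum NF54-pfs16-GFP early (I-III) or late (IV-V) gametocytes, 72 h, 37 C, viable gametocytes counted by confocal imaging; IC50 from an unconstrained 4-parameter fit. Compounds with no plateau have no IC50 and are left out.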

[2] = system: P. falciparum NF54-pfs16-GFP early (I-III) stage gametocytes; conditions: stage: early (I-III) gametocyte; incubation 72 h
Method: as §1

Compound: COc1ccc(C(=O)NC(c2ccc(Cl)cc2Cl)c2cc(Cl)c3cccnc3c2O)cc1 (stereo unspecified)
- IC50, viable gametocyte number [1]: 1080 nM

Compound: CSC1=NC(=Nc2c(C)cccc2C)C2(CCC(C(C)(C)C)CC2)N1c1ccc(Cl)cc1 (stereo unspecified)
- IC50, viable gametocyte number [1]: 592 nM

Compound: CCCCCCc1cc(O)c2c3c(c(=O)oc2c1)CCC(C)C3 (stereo unspecified)
- IC50, viable gametocyte number [1]: 759 nM

Compound: OC(CNC1CCCCC1)Cn1c2ccc(I)cc2c2cc(I)ccc21 (stereo unspecified)
- IC50, viable gametocyte number [1]: 63 nM
- IC50, viable gametocyte number [2]: 252 nM

Compound: Cc1ccc(Nc2nc(-c3ccccn3)cs2)cc1
- IC50, viable gametocyte number [1]: 231 nM
- IC50, viable gametocyte number [2]: 461 nM

Compound: FC(F)(F)c1cccc(Nc2nc3ccccc3nc2Nc2cccc(C(F)(F)F)c2)c1
- IC50, viable gametocyte number [1]: 416 nM
- IC50, viable gametocyte number [2]: 1310 nM

Compound: CCN(CC)CCn1c(=N)n(CC(O)c2ccc(Cl)c(Cl)c2)c2ccccc21 (stereo unspecified)
- IC50, viable gametocyte number [1]: 1090 nM
- IC50, viable gametocyte number [2]: 1440 nM

Compound: CCOC(=O)c1cn(CC)c2cc(N(C)CCc3ccc(OC)c(OC)c3)c(F)cc2c1=O
- IC50, viable gametocyte number [1]: 574 nM

Compound: COc1ccc(C2NCCc3c2[nH]c2ccccc32)cc1CN1CCN(c2ccc(F)cc2)CC1 (stereo unspecified)
- IC50, viable gametocyte number [1]: 1170 nM

Compound: CCCCCCc1cc2cc(-c3csc(C=Cc4ccccc4)n3)c(=O)oc2cc1O
- IC50, viable gametocyte number [1]: 594 nM
- IC50, viable gametocyte number [2]: 830 nM

Compound: COc1ccc(-c2nc(N3CCN(C(=O)C4CCCCC4)CC3)c3c4c(sc3n2)CCCC4)cc1
- IC50, viable gametocyte number [1]: 1290 nM

Compound: CCc1ccc(Nc2cc(C)c3ccc(O)cc3n2)cc1
- IC50, viable gametocyte number [1]: 1270 nM

Compound: CC(C)CCNCC(O)Cn1c2ccccc2c2ccccc21 (stereo unspecified)
- IC50, viable gametocyte number [1]: 1170 nM

Compound: CCCc1cc(O)c2c3c(c(=O)oc2c1)CN(C)CC3
- IC50, viable gametocyte number [1]: 591 nM

Compound: COc1ccc(C2=C(c3ccc(OC)cc3)C3(c4ccccc4)C(=O)C2(c2ccccc2)C2C(=O)N(c4ccc(C)cc4)C(=O)C23)cc1 (stereo unspecified)
- IC50, viable gametocyte number [1]: 333 nM

Compound: CC1CCCCN1CCCNC(=O)c1ccc2c(c1)sc1nc(-c3ccc(F)cc3)cn12 (stereo unspecified)
- IC50, viable gametocyte number [2]: 1790 nM

Compound: C=CC12CCN(CC1)C(C(O)c1ccnc3ccc(OC)cc13)C2 (stereo unspecified)
- IC50, viable gametocyte number [1]: 276 nM
- IC50, viable gametocyte number [2]: 823 nM

Compound: Cc1cc(Nc2ccc(OCc3ccccc3)cc2)nc2cc(O)ccc12
- IC50, viable gametocyte number [1]: 784 nM

Compound: COC(=O)c1ccc(C2C3=C(O)CC(c4ccc(F)cc4)CC3=Nc3ccccc3N2C(=O)c2ccccc2)cc1 (stereo unspecified)
- IC50, viable gametocyte number [1]: 1130 nM

Compound: Clc1cc(Br)ccc1-c1ccc(CNCC2CCNCC2)o1
- IC50, viable gametocyte number [1]: 692 nM
- IC50, viable gametocyte number [2]: 824 nM

Compound: CNCCCNc1ccnc2cc(Cl)ccc12
- IC50, viable gametocyte number [1]: 310 nM
- IC50, viable gametocyte number [2]: 274 nM

Compound: COc1cccc(C=Cc2nc(=O)c3ccccc3o2)c1OC
- IC50, viable gametocyte number [1]: 438 nM

Compound: CCOC(=O)c1c(NC(=O)c2ccccc2)sc2c(O)c(CN(CC)CC)ccc12
- IC50, viable gametocyte number [1]: 371 nM
- IC50, viable gametocyte number [2]: 810 nM

Compound: CCOC(=O)C1=C(C)N=c2sc(=Cc3cc(Cl)ccc3O)c(=O)n2C1c1ccc(OC)cc1 (stereo unspecified)
- IC50, viable gametocyte number [1]: 228 nM
- IC50, viable gametocyte number [2]: 359 nM

Compound: Cc1ccc(N2C3c4ccccc4N(S(=O)(=O)c4ccc(C)cc4)C2c2ccccc2N3S(=O)(=O)c2ccc(C)cc2)cc1
- IC50, viable gametocyte number [1]: 208 nM
- IC50, viable gametocyte number [2]: 1180 nM

Compound: CN1CCN(c2ccc(Nc3c4ccccc4nc4ccccc34)cc2)CC1
- IC50, viable gametocyte number [1]: 1360 nM
- IC50, viable gametocyte number [2]: 1110 nM

Compound: CCN(CC)CCNc1ccnc2cc(Cl)ccc12
- IC50, viable gametocyte number [2]: 1020 nM

Compound: CC(C)(C)c1ccc(O)c(CNC2CCCCC2)c1
- IC50, viable gametocyte number [1]: 382 nM
- IC50, viable gametocyte number [2]: 712 nM

Compound: COc1ccc(C2c3ccc4ccccc4c3Oc3ncn(CCCN(C)C)c(=N)c32)cc1 (stereo unspecified)
- IC50, viable gametocyte number [1]: 1060 nM

Compound: COc1ccc(C=C2SC(Nc3ccc(F)cc3)=NC2=O)c(OC)c1
- IC50, viable gametocyte number [1]: 892 nM

Compound: COc1ccc2c(=O)cc(C(Cl)(Cl)Cl)oc2c1
- IC50, viable gametocyte number [2]: 1210 nM

Compound: O=c1cc(NC2CCN(CCCc3ccccc3)CC2)c2cc(Cl)ccc2o1
- IC50, viable gametocyte number [2]: 1310 nM

Compound: c1ccc(Cn2c(N=Nc3c(Nc4ccccc4)ccc4ccccc34)nc3ccccc32)cc1
- IC50, viable gametocyte number [1]: 184 nM

Compound: CN(C)c1ccc(C=Cc2nc(=O)c3ccccc3o2)cc1
- IC50, viable gametocyte number [1]: 936 nM

Compound: OC1=C2C(=Nc3ccccc3SC2c2ccc(Br)cc2)c2ccccc21 (stereo unspecified)
- IC50, viable gametocyte number [1]: 875 nM

Compound: CSc1ccccc1C(=O)Nc1nc(-c2ccccn2)cs1
- IC50, viable gametocyte number [1]: 781 nM

Compound: COc1ccc(Nc2nc(NCc3ccccc3)c3ccccc3n2)cc1
- IC50, viable gametocyte number [2]: 1480 nM

Compound: CCOC(=O)c1cnc2ccc(CC)cc2c1O
- IC50, viable gametocyte number [1]: 253 nM

Compound: COc1ccc(C(C)=O)cc1N1C(=O)C2C(C1=O)C1(c3ccccc3)C(=O)C2(c2ccccc2)C(c2ccc(C)cc2)=C1c1ccc(C)cc1 (stereo unspecified)
- IC50, viable gametocyte number [1]: 826 nM

Compound: Nc1ccc(-c2nc3cc(Cc4ccc5[nH]c(-c6ccc(N)cc6)nc5c4)ccc3[nH]2)cc1
- IC50, viable gametocyte number [1]: 1100 nM

Compound: CCCCCCc1cc2cc(-c3nc4ccccc4[nH]3)c(=Nc3ccccc3C)oc2cc1O
- IC50, viable gametocyte number [1]: 465 nM
- IC50, viable gametocyte number [2]: 819 nM

Compound: CCN(CC)CCNc1ccnc2cc3ccccc3cc12
- IC50, viable gametocyte number [2]: 1710 nM

Compound: Cc1ccc2c(C)nc(Nc3nc(C)cc(-c4ccccc4)n3)nc2c1
- IC50, viable gametocyte number [1]: 673 nM

Compound: Oc1ccccc1CNCC12CC3CC(CC(C3)C1)C2
- IC50, viable gametocyte number [1]: 415 nM
- IC50, viable gametocyte number [2]: 891 nM

Compound: CN(C)CCCNc1c2ccccc2nc2ccccc12
- IC50, viable gametocyte number [1]: 703 nM
- IC50, viable gametocyte number [2]: 1440 nM

Compound: CN(C)c1ccc(C(O)(c2ccc(N(C)C)cc2)c2ccc(N(C)C)cc2)cc1
- IC50, viable gametocyte number [1]: 315 nM
- IC50, viable gametocyte number [2]: 769 nM

Compound: Oc1ccccc1CN1CCC2(CCCN(Cc3ccccc3F)C2)C1 (stereo unspecified)
- IC50, viable gametocyte number [1]: 673 nM
- IC50, viable gametocyte number [2]: 1360 nM

Compound: Brc1ccc(Nc2nc3ccccc3nc2Nc2ccc(Br)cc2)cc1
- IC50, viable gametocyte number [1]: 948 nM

Compound: Oc1ccccc1CN1CCN(C(c2ccccc2)c2ccccc2)CC1
- IC50, viable gametocyte number [1]: 1320 nM

Compound: CC1CC2=C(CC1CNCCCN(C)C)C(C)(C)CCC2 (stereo unspecified)
- IC50, viable gametocyte number [1]: 541 nM

Compound: COc1cccc(O)c1CN1CCC2(CCCN(Cc3ccc(F)cc3)C2)C1 (stereo unspecified)
- IC50, viable gametocyte number [1]: 899 nM

Compound: Cn1c(=O)n(C)c2cc(CNCCNc3ccnc4cc(Cl)ccc34)ccc21
- IC50, viable gametocyte number [2]: 588 nM

Compound: CCOC(=O)C1=C(C)N=c2sc(=Cc3ccccc3O)c(=O)n2C1c1ccc(OC)c2ccccc12 (stereo unspecified)
- IC50, viable gametocyte number [1]: 1080 nM

Compound: Cc1cccc(-n2ncc3c(=O)[nH]c(-n4nc(C)cc4NC(=O)c4cc5ccccc5o4)nc32)c1
- IC50, viable gametocyte number [1]: 1090 nM

Compound: CCOC(=O)c1cn(CC)c2cc(N3CCCCC3)c(F)cc2c1=O
- IC50, viable gametocyte number [1]: 337 nM

Compound: O=C1c2ccccc2C2=Nc3ccccc3SC(c3cccc(F)c3)C12 (stereo unspecified)
- IC50, viable gametocyte number [1]: 733 nM

Compound: COc1ccc(-c2nc3cc(Cc4ccc5[nH]c(-c6ccc(OC)cc6)nc5c4)ccc3[nH]2)cc1
- IC50, viable gametocyte number [1]: 1110 nM
- IC50, viable gametocyte number [2]: 949 nM

Compound: CCCOCc1cc(CN2CCN(c3cccc(Cl)c3)CC2)c(O)c2ncccc12
- IC50, viable gametocyte number [1]: 584 nM

Compound: Cc1sc2ncnc(Sc3nc4ccccc4[nH]3)c2c1C
- IC50, viable gametocyte number [1]: 324 nM
- IC50, viable gametocyte number [2]: 1140 nM

Compound: COc1cc2c(cc1OC)C1=NNC(=O)C1=NC(C)(C)C2
- IC50, viable gametocyte number [1]: 1040 nM

Compound: CC(C)(C)c1ccc2c(c1)CN(Cc1ccc(Cl)cc1)CO2
- IC50, viable gametocyte number [1]: 920 nM

Compound: Oc1ccc(-c2nc(-c3ccc4oc5ccc(-c6[nH]c(-c7ccc(O)cc7)nc6-c6ccccc6)cc5c4c3)c(-c3ccccc3)[nH]2)cc1
- IC50, viable gametocyte number [2]: 699 nM

Compound: Cc1ccc(-c2cc3c(nn2)-c2ccccc2C3=O)cc1
- IC50, viable gametocyte number [1]: 603 nM

Compound: CCCCCCn1c(=N)n(CC(O)COc2cccc(C)c2)c2ccccc21 (stereo unspecified)
- IC50, viable gametocyte number [1]: 1610 nM

Compound: OCCNc1nc(Nc2ccc(Cl)c(Cl)c2)nc2ccccc12
- IC50, viable gametocyte number [1]: 1350 nM

Compound: CC1=C(CC(=O)c2cccc([N+](=O)[O-])c2)C(=O)c2ccccc2C1=O
- IC50, viable gametocyte number [1]: 745 nM
- IC50, viable gametocyte number [2]: 1160 nM

Compound: CCOc1ccccc1CN1CCc2nc3cc(C(C)(C)C)nn3c(O)c2C1
- IC50, viable gametocyte number [1]: 1590 nM

Compound: COc1ccc(NC(=O)C2c3ccccc3C(=O)N(CC(C)C)C2c2cccs2)cc1Cl (stereo unspecified)
- IC50, viable gametocyte number [1]: 596 nM

Compound: COc1ccc(C(=O)C(CCC(CNC(C)(C)C)C(=O)c2ccc(OC)cc2)CNC(C)(C)C)cc1 (stereo unspecified)
- IC50, viable gametocyte number [1]: 1090 nM

Compound: OC(CNC1CCCCC1)Cn1c2ccccc2c2ccccc21 (stereo unspecified)
- IC50, viable gametocyte number [1]: 897 nM
